Measured values published in ChEMBL document CHEMBL1201862, “PubChem BioAssay data set” (2004).
Several values for one entry are separate records, joined by “and”; a condition that tells them apart may be missing. Identical values can stand only once. Activity calls are given as the source filed them.

Tests used:
Cytochrome P450 2D6 = Cytochrome P450 2D6 (Homo sapiens, UniProt P10635);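 further: CYP2D6 member of a cytochrome P450 panel assay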
[1] = molecular target: T1, Heat shock factor protein 1 (Mus musculus, UniProt P38532); experiment: decrease of HSF1-responsive luciferase luminescence – cell-based, NIH3T3, dose retest, confirmation (AID 2382); type: functional;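 further: NIH3T3 fibroblasts with HSF1-driven luciferase reporter stressed by proteasome inhibitor MG132; luminescence from HSF1-driven luciferase expression after 8 hours of MG132 stress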
T1 sequence (P38532 whole entry): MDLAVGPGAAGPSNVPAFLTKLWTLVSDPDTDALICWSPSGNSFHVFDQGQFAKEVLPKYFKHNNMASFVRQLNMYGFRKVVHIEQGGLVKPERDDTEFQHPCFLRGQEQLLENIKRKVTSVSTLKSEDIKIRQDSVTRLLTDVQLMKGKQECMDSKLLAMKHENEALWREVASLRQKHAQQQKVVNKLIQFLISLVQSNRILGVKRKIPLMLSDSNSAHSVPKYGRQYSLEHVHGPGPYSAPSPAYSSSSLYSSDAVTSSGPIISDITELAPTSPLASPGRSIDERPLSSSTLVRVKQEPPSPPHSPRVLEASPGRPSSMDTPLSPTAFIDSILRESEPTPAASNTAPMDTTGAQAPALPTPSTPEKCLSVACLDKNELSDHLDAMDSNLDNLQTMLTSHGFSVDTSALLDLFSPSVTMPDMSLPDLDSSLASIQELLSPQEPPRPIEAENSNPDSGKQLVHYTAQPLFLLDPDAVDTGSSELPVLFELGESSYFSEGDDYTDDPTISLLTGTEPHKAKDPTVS

[2] = Luminescence Cell-Based Dose Response HTS to Identify Inhibitors of 5'UTR Stem-Loop Driven Prion Protein mRNA Translation in H4 Neuroglioblastoma Cells. [Related pubchem assays: 1827 (Project Summary), 1813 (Primary HTS)]; type: functional
[3] = alpha-synuclein stem-loop luciferase translation blockers – H4 neuroglioma cells, luminescence, confirmation (AID 1988); type: functional, cell-based
[4] = luciferase reporter signal suppression in cells – H4 neuroglioma cells, luminescence, dose response (AID 1990); type: functional, cell-based
[5] = Luminescence Cell-Based Dose Retest to Confirm Inhibitors of Cancer Stem Cells. [Related pubchem assays (depositor defined):AID2717, AID2721]; type: functional; settings: Homo sapiens
Cytochrome P450 3A4 = Cytochrome P450 3A4 (Homo sapiens, UniProt P08684);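 further: CYP3A4 tested as one member of a cytochrome P450 panel screen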
[6] = Luminescence Cell-Based Dose Response HTS to Identify Activators of Luciferase Translation or Activity in H4 […] Cells. [Related pubchem assays: 1829 (Project Summary), 1814 (Primary HTS)]; type: functional
H4 = experiment: Luminescence Cell-Based Dose Response HTS to Identify Activators of 5'UTR Stem-Loop Driven Prion Protein mRNA Translation in H4 Neuroglioblastoma Cells. [Related pubchem assays: 1829 (Project Summary), 1814 (Primary HTS)]; type: functional; settings: Homo sapiens
Cytochrome P450 2C9 = Cytochrome P450 2C9 (Homo sapiens, UniProt P11712)
Cytochrome P450 1A2 = molecular target: T2, Cytochrome P450 1A2 (Homo sapiens, UniProt P05177);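 further: PubChem cytochrome P450 panel assay, CYP1A2 panel member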
T2 sequence (P05177 whole entry): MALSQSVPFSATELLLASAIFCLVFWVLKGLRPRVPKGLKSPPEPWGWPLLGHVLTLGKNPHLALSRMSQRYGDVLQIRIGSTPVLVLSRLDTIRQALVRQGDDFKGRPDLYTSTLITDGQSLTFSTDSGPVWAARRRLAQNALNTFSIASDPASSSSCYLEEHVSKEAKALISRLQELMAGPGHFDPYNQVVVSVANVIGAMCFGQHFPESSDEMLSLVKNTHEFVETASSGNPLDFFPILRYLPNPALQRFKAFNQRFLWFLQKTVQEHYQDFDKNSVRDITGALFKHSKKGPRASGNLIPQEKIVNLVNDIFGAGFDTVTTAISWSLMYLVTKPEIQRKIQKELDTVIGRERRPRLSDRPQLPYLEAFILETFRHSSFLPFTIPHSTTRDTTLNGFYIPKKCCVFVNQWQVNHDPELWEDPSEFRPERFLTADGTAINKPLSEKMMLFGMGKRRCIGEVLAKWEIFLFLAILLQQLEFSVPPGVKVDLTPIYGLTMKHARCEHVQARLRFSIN

[7] = molecular target: T3, Rac GTPase-activating protein 1 (Homo sapiens, UniProt Q9H0H5); experiment: blockers of MgcRacGAP-driven Rac1 GTP hydrolysis – biochemical, ADP Hunter fluorescence, primary and confirmatory, confirmation (AID 624330); type: functional
T3 sequence (Q9H0H5 whole entry): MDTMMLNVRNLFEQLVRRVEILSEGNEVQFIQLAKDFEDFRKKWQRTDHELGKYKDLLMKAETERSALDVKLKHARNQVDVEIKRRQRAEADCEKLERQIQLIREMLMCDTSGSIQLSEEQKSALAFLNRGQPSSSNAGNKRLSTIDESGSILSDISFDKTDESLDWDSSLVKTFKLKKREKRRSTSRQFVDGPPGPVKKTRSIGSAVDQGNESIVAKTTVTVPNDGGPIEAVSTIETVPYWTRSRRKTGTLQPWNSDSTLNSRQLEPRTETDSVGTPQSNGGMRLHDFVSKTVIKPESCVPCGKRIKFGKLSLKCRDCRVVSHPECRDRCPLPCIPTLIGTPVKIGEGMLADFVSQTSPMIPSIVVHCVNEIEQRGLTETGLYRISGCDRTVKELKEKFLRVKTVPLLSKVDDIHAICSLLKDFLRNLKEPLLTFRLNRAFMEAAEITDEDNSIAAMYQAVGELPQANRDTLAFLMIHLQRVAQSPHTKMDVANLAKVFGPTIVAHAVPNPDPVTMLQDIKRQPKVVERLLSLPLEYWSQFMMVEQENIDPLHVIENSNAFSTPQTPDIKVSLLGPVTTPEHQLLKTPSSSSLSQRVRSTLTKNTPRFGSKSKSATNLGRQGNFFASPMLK

Sequence of Cytochrome P450 2C9 (P11712 whole entry): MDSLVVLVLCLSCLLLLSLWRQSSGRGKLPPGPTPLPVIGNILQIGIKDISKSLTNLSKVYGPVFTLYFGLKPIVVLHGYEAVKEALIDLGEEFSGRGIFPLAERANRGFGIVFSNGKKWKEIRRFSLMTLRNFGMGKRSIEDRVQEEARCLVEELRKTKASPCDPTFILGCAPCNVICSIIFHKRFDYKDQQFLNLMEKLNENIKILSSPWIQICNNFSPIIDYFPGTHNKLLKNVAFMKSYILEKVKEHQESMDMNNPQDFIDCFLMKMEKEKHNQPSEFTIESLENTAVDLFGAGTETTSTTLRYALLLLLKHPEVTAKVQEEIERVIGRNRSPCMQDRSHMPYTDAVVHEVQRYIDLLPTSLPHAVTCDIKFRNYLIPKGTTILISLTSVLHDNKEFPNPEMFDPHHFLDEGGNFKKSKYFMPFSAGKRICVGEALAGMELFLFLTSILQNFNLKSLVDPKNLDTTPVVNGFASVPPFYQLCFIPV
Sequence of Cytochrome P450 2D6 (P10635 whole entry): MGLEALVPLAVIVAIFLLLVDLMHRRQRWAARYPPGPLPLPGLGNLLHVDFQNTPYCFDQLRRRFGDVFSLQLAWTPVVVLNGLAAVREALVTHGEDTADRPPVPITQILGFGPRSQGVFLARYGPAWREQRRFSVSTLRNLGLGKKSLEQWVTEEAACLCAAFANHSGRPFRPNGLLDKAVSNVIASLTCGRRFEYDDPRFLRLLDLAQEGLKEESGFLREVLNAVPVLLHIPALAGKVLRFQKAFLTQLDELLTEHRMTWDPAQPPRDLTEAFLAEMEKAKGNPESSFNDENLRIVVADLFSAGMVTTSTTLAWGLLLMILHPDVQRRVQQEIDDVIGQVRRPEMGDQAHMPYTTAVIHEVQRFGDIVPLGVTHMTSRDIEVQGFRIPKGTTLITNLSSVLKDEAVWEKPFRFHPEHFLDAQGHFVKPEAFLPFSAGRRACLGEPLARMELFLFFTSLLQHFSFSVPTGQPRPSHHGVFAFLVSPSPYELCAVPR
Sequence of Cytochrome P450 3A4 (P08684 whole entry): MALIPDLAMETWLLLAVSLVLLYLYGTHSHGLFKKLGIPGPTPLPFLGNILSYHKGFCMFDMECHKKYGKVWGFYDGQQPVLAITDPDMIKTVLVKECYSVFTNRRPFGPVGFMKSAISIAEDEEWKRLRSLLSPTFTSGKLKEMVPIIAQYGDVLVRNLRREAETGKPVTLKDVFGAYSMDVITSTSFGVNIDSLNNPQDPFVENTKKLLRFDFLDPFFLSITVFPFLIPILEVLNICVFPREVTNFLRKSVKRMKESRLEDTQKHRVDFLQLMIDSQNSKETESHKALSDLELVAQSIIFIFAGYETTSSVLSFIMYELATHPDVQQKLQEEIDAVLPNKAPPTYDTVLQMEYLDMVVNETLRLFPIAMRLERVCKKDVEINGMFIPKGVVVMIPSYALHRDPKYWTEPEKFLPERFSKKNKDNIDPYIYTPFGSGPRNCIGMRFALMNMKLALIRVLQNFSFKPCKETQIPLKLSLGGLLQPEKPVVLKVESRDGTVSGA

Compound: O=C1Nc2ccccc2C1=Nc1sc2c(c1C(=O)NCCc1ccccc1)CCCC2
- AC50 (Cytochrome P450 2D6): 4.47 µM (inconclusive)

Compound: O=[N+]([O-])c1ccccc1CCc1cnc(Cl)s1
- EC50 [1]: > 195 µM (not active)

Compound: CN1CCN(CC(=O)Nc2nnc(-c3cccs3)s2)CC1
- EC50 [1]: > 195 µM (not active)

Compound: CCOc1ccccc1NC(=O)CSc1nnc(-c2ccco2)n1Cc1ccco1
- EC50 [2]: > 120 µM (not active)
- EC50 [3]: > 120 µM (not active)
- EC50 [4]: > 120 µM (not active)

Compound: COc1cc(S(=O)(=O)N2CCCCCC2)c(OC)cc1Br
- AC50 [5]: 1.01 µM (active)

Compound: Cc1ccc(-c2ccc(=O)n(CCC(=O)NCCN3CCCCC3C)n2)cc1 (stereo unspecified)
- EC50 [1]: > 195 µM (not active)

Compound: C[C@H](C(=O)c1ccccc1)[C@@H](c1ccccc1)N1CCOCC1
- AC50 (Cytochrome P450 3A4): 0.501 µM (inconclusive)

Compound: CN1CCN(S(=O)(=O)c2cccc(C(=O)Nc3cc(C(F)(F)F)ccc3N3CCCCC3)c2)CC1
- AC50 [5]: 2.5 µM (active)

Compound: CC1CC1C(=O)OCc1cc(=O)n2cc(Br)ccc2n1 (stereo unspecified)
- EC50 [6]: 0.102 µM (active)
- EC50 (H4): > 120 µM (not active)

Compound: CCOC(=O)Cn1c(CCC(=O)O)ccc1-c1ccc(F)cc1
- EC50 [1]: > 195 µM (not active)

Compound: N#Cc1ccsc1NC(=O)COC(=O)c1ccc2ccccc2c1
- EC50 (H4): 17.5 µM (active)

Compound: CCOc1ccc(C(=O)Nc2ccc3nc(N4CCN(CC)CC4)cc(C)c3c2)cc1
- EC50 [2]: > 120 µM (not active)
- EC50 [3]: > 120 µM (not active)
- EC50 [4]: 10.3 µM (active)

Compound: COc1ccc(Oc2ncc3nc(-c4cccc(C#N)c4)c(=O)n(CCC#N)c3n2)cc1
- AC50 (Cytochrome P450 2C9): 25.1 µM (inconclusive)
- AC50 (Cytochrome P450 1A2): 25.1 µM (inconclusive)

Compound: N=C(NOC(=O)c1cccc(F)c1)c1ccccc1
- EC50 [6]: > 120 µM (not active)

Compound: Cc1onc(-c2c(Cl)cccc2Cl)c1C(=O)Nc1ccc2c(c1)OCO2
- AC50 (Cytochrome P450 3A4): 1 µM (inconclusive)

Compound: Cc1ccc(N2C(=O)c3ccccc3C2Nc2ccccc2F)nc1 (stereo unspecified)
- EC50 [1]: > 195 µM (not active)

Compound: CCCCCn1c(=O)c(C(=O)Nc2ccccn2)c(O)c2ccccc21
- EC50 [1]: > 195 µM (not active)
- EC50 [2]: 11.2 µM (active)
- EC50 [3]: 9.51 µM (active)
- EC50 [4]: > 120 µM (not active)

Compound: COC(=O)C1C(=O)C2=C(CC1C)NC(=O)CC2c1cccc(C)c1 (stereo unspecified)
- AC50 (Cytochrome P450 2C9): 15.8 µM (inconclusive)
- AC50 [5]: > 195 µM (inactive)

Compound: CC(C)(C)C(=O)N1CCN(CCN2C(=O)c3cccc4cccc(c34)C2=O)CC1
- EC50 [1]: > 195 µM (not active)

Compound: COc1ccc(CNC(=O)Cc2csc(Nc3nc(S)nc4ccccc34)n2)cc1
- AC50 (Cytochrome P450 2D6): 0.447 µM (inconclusive)

Compound: Cc1noc(C)c1-c1ccc2ncnc(NCCN3CCOCC3)c2c1
- AC50 (Cytochrome P450 2D6): 31.6 µM (inconclusive)

Compound: COc1ccc2c(c1)c(=O)oc1c(C)c(OCC(=O)N3CCc4ccccc4C3)ccc12
- AC50 (Cytochrome P450 3A4): 3.16 µM (inconclusive)

Compound: COc1ccc(S(=O)(=O)NCC2CCCN(Cc3ccc(C)o3)C2)cc1 (stereo unspecified)
- EC50 [1]: > 195 µM (not active)

Compound: Cc1onc(-c2ccccc2)c1C(=O)N1CCN(S(=O)(=O)c2ccc(Cl)cc2)CC1
- EC50 [2]: > 120 µM (not active)
- EC50 [3]: > 120 µM (not active)
- EC50 [4]: > 120 µM (not active)

Compound: COc1ccc(-n2c(C)nnc2O)cc1OC
- AC50 (Cytochrome P450 2C9): 1.78 µM (inconclusive)

Compound: Cc1c(CCC(=O)N[C@@H](C)C(=O)O)c(=O)oc2cc3oc4c(c3cc12)CCCC4
- EC50 [2]: 17 µM (active)
- EC50 [3]: 14.4 µM (active)
- EC50 [4]: 12.7 µM (active)

Compound: CCOC(=O)Cn1nnc2c(sc3nc4c(c(-c5ccccc5)c32)CCC4)c1=O
- EC50 [2]: 3.88 µM (active)
- EC50 [3]: > 120 µM (not active)
- EC50 [4]: > 120 µM (not active)

Compound: O=C1CN=C(c2cccs2)c2c(sc3c2CCCC3)N1
- AC50 (Cytochrome P450 2C9): 35.5 µM (inconclusive)

Compound: CC(C)CN(C(=O)CCCSc1nc2ccccc2[nH]1)c1c(N)n(Cc2ccccc2)c(=O)[nH]c1=O
- EC50 [1]: > 195 µM (not active)

Compound: O=[N+]([O-])c1ccc(N2CCN(Cc3ccccc3)CC2)c(S(=O)(=O)N2CCOCC2)c1
- AC50 (Cytochrome P450 3A4): 12.6 µM (inconclusive)

Compound: COc1ccc(-c2nc3cnc(N4CCNCC4)nc3n(Cc3cccs3)c2=O)cc1
- AC50 (Cytochrome P450 2C9): 39.8 µM (inconclusive)

Compound: COc1ccc(Oc2ncc3nc(CCc4ccccc4)c(=O)n(C)c3n2)cc1
- AC50 (Cytochrome P450 3A4): 7.94 µM (inconclusive)

Compound: CC(Oc1ccccc1)C(=O)NC1=NCCS1 (stereo unspecified)
- EC50 [6]: 94.2 µM (active)
- EC50 (H4): 18.9 µM (active)

Compound: CCOC(=O)c1c(C)[nH]c(C(=O)Nc2ccc(NC(C)=O)cc2)c1C
- EC50 [2]: 3.99 µM (active)
- EC50 [3]: 10.9 µM (active)
- EC50 [4]: 10.9 µM (active)

Compound: CC(C)CCNc1nc(N)c([N+](=O)[O-])c(NCC2CCCO2)n1 (stereo unspecified)
- EC50 [2]: > 120 µM (not active)
- EC50 [3]: > 120 µM (not active)
- EC50 [4]: 12 µM (active)

Compound: CCN(CC)C1=NC(=[N+](CC)CC)c2ccccc21
- AC50 (Cytochrome P450 2D6): 14.1 µM (inconclusive)

Compound: CCOc1ccccc1C(=O)Nc1ccc(NC(=O)c2ccccc2)cc1
- EC50 [1]: > 195 µM (not active)

Compound: CSc1ccc2nnc(-c3cccc(F)c3)n2n1
- AC50 (Cytochrome P450 2C9): 39.8 µM (inconclusive)

Compound: COc1ccc2c(c1OC)C(=O)OC2Nc1ccc(S(=O)(=O)N=C(N)N)cc1 (stereo unspecified)
- EC50 [1]: > 195 µM (not active)

Compound: COc1ccccc1-c1cc(NCc2cccs2)ncn1
- AC50 (Cytochrome P450 3A4): 31.6 µM (inconclusive)

Compound: Cc1ccc(NC(=O)CN2C(=O)NC3(CCCC3)C2=O)c(Cl)c1
- EC50 [1]: > 195 µM (not active)

Compound: COc1ccc(-c2oc3ccc(N4CCOCC4)cc3c2C#CCO)cc1
- AC50 [5]: 3.96 µM (active)

Compound: O=S(=O)(c1ccc(F)cc1)N1CCCC(CO)C1 (stereo unspecified)
- AC50 (Cytochrome P450 3A4): 25.1 µM (inconclusive)

Compound: CCN(CC)S(=O)(=O)c1ccc(OC)c(NC(=O)CSc2ccccc2)c1
- AC50 (Cytochrome P450 3A4): 31.6 µM (inconclusive)

Compound: CC(=O)N/N=C(\C)CC(=O)NC(C)(C)C
- EC50 [1]: > 195 µM (not active)

Compound: CCC(CC)C(=O)Nc1cccc(/C(C)=N/NC(=O)c2c(Br)cnn2C)c1
- AC50 (Cytochrome P450 2C9): 8.91 µM (inconclusive)
- AC50 (Cytochrome P450 1A2): 12.6 µM (inconclusive)

Compound: CCCc1[nH]nc2c1/C(=N/O)CC(c1ccccc1)C2 (stereo unspecified)
- EC50 [2]: > 120 µM (not active)
- EC50 [3]: 13.4 µM (active)
- EC50 [4]: 12.8 µM (active)

Compound: Cc1cccc(C(=O)N/N=C/c2ccc(OC3CSC3)cc2)c1
- AC50 [5]: 1.71 µM (active)

Compound: COc1cc(/C=N/NC(=O)c2cc(C)oc2C)ccc1O
- EC50 [1]: > 195 µM (not active)
- IC50 [7]: 37.6 µM (active)

Compound: C=C1/C(=C\C=C2/CCC[C@]3(C)[C@@H]([C@H](C)/C=C/[C@@H](O)C4CC4)CC[C@@H]23)C[C@@H](O)C[C@@H]1O [CALCIPOTRIENE]
- AC50 [5]: 8.81 µM (active)

Compound: CN(C)CCC[C@@]1(c2ccc(F)cc2)OCc2cc(C#N)ccc21 [ESCITALOPRAM]
- AC50 (Cytochrome P450 2D6): 39.8 µM (inconclusive) and 12.6 µM (inconclusive)
